Assay results published in US10927100B2, “Degradable imidazolium oligomer and polymer for antimicrobial applications” (AGENCY FOR SCIENCE, TECHNOLOGY AND RESEARCH, priority 2017, dated 2021).
Converted amounts (≈) assume the structure as drawn. Like-named read-outs stand apart in the source and are kept apart here.

How the values were obtained:
[1] = test system: Pseudomonas aeruginosa (Gram-negative); assay: Minimum inhibitory concentration, microdilution assay; type: cell-based; details: for MIC: Pseudomonas aeruginosa
Procedure: (§1) Staphylococcus aureus (ATCC 6538, Gram-positive), Escherichia coli (ATCC 8739, Gram-negative), Pseudomonas aeruginosa (Gram-negative), and Candida albicans (ATCC 10231, fungus) were used as representative microorganisms to challenge the antimicrobial functions of the imidazolium salts. All bacteria and fungus were stored frozen at −80° C., and were grown overnight at 37° C. in Mueller Hinton Broth (MHB) prior to experiments. Fungus was grown overnight at 22° C. in Yeast Mold (YM) broth. […] The plates were incubated at 37° C. for 24 hours with constant shaking speed at 300 rpm. […] PBS solution containing microbial cells alone were used as negative controls. The assay was performed in four replicates and the experiments were repeated at least two times.

[2] = test system: Staphylococcus aureus (ATCC 6538, Gram-positive); assay: as above; type: cell-based
Procedure: as §1

[3] = test system: Candida albicans (ATCC 10231, fungus); assay: as above; type: cell-based; details: for MIC: Candida albicans, ATCC10231
Procedure: as §1

[4] = test system: Escherichia coli (ATCC 8739, Gram-negative); assay: as above; type: cell-based; details: for MIC: Escherichia coli, ATCC8739
Procedure: as §1

rat red blood cells = assay: Haemolysis; type: cell-based
Procedure: Fresh rat red blood cells (RBCs) were diluted with PBS buffer to give an RBC stock suspension (4 vol % blood cells). A 100 μL aliquot of RBC suspension was added into a 96-well plate containing 100 μL oligomer solutions of various concentrations (ranging from 4 mg mL^−1 to 2 μg mL^−1 in serial two-fold dilutions in PBS). After 1 hour incubation at 37° C., the contents of each well were pipetted into a micro-centrifuge tube and centrifuged at 2000 rpm for 5 minutes. Aliquots (100 μL) of the supernatant were transferred to a new 96-well plate. Haemolytic activity was determined as a function of haemoglobin release by measuring OD576 of 100 μL of the supernatant using a microplate reader (TECAN). A control solution that contained only PBS was used as a reference for 0% haemolysis. Absorbance of red blood cells lysed with 0.5% Triton-X was taken as 100% haemolysis. The data were expressed as mean and S.D. of four replicates, and the tests were repeated two times.

S. aureus [5] = assay: Resistance studies, serial passage at sub-MIC; type: cell-based, Staphylococcus aureus; details: for resistance to polymers IBN-CP1 or IBN-CP3 after growth with degradation product: media containing 2, 8, 16 and 100 μg/ml over one month
Procedure: The method was adapted from that of Yang and co-authors with modification [K. Fukushima, S. Liu, H. Wu, A. C. Engler, D. J. Coady, H. Maune, J. Pitera, A. Nelson, N. Wiradharma, S. Venkataraman, Y. Huang, W. Fan, J. Y. Ying, Y. Y. Yang, J. L. Hedrick. Nature Comm, 2013, 4:2861]. Drug resistance was induced by treating S. aureus repeatedly with degradable oligomers. First MICs of the tested oligomers were determined against S. aureus using the broth microdilution method. Then serial passaging was initiated by transferring bacterial suspension grown at the sub-MIC of the oligomers (½ of MIC at that passage) and was subjected to another MIC assay. After 24 hours incubation period, cells grown at the sub-MIC of the test compounds/antibiotics were once again transferred and assayed for MIC. The MIC against S. aureus was tested for 16 passages.
Drug-resistant behaviour of S. aureus was evaluated by recording the changes in the MIC normalized to that of the first passage. Conventional antibiotics vancomycin was used as the control.

[6] = Oligomer and polymer degradation by 1H NMR spectroscopy; type: physicochemical; details: pH 6-8 buffered solutions, ambient conditions
Procedure: Sorenson's phosphate buffer (pH, 6.0, 7.0, 8.0), tris buffer (pH 6.0, 7.0, 8.0) and sodium citrate-citric acid buffer (pH 3.0, 4.0, 5.0) were prepared in deionized water at concentrations of 100 mM, as well as 10 mM for tris buffer solution. […] A 4 mg sample of imidazolium oligomer or polymer was dissolved in deuterated buffer solution with care taken to ensure complete solution of the compounds. […] Degradation of the carbonate and ester-linked compounds was observed by disappearance of the signal of the methylene protons adjacent to the carbonate or ester functional group, and/or appearance of the signal of the methylene protons adjacent to the hydroxyl group in the degradation product.

E. coli = assay: Agar well diffusion assay; type: cell-based, Escherichia coli
Procedure: (§2) The degradable oligomers were dissolved in ethanol and glycerol at 0.5% w/v concentration. Agar plates were inoculated with bacteria and 6 mm wells were cut, into which 20 μL of solution was added. Plates were inoculated at 37° C. for 24 hours and zone of inhibitions measured using a pair of vernier calipers.

E. coli and S. aureus = assay: SEM observation of bacteria treated with oligomers; type: cell-based; details: 4MIC, exposure two minutes
Procedure: Bacterial cells (3×10^8 CFU/mL) grown in MHB without or with the oligomers at 4MIC for 2 minutes were collected and centrifuged at 5000 rpm for 5 minutes. The precipitates were washed twice with PBS buffer. Then the samples were fixed with glutaraldehyde (2.5%) for 2 hours followed by washing with DI water. Dehydration of the samples was performed using a series of ethanol/water solution (35%, 50%, 75%, 90%, 95% and 100%). The dehydrated samples were mounted on copper tape. After drying for 2 days, the samples were further coated with platinum for imaging with JEOL JSM-7400F (Japan) field emission scanning electron microscope operated at an accelerating voltage of 5 keV.

S. aureus [7] = assay: Agar well diffusion assay; type: cell-based, Staphylococcus aureus
Procedure: as §2

P. aeruginosa = assay: Agar well diffusion assay; type: cell-based, Pseudomonas aeruginosa
Procedure: as §2

[8] = Critical gelation concentration in alcohols; type: physicochemical
Procedure: Gels were prepared by weighing the imidazolium oligomers directly into 4 mL glass vials and subsequently adding a known weight or volume of the solvent. The vials containing both the imidazolium and the solvent were either heated or sonicated to aid the dissolution process. The vials were left standing over night at ambient conditions. The gel state was evaluated by the stable-to-inversion-of-a-test-tube method. The critical gelation concentration (CGC) is defined as the lowest concentration of the gelator which leads to a stable gel.

[9] = rat red blood cells, 1 hour, 37° C.
[10] = Staphylococcus aureus, ATCC6538; read-out: MIC S. aureus
[11] = 0.5% w/v solution in glycerol, compared with ethanol solution

Structure (SMILES)	MIC P. aeruginosa [1] [µg/mL]	MIC S. aureus [2] [µg/mL]	MIC C. albicans [3] [µg/mL]	MIC E. coli [4] [µg/mL]	HC10 (rat red blood cells; [9]) [µg/mL]	further results
CCCCCCCCn1cc[n+](Cc2ccc(Cn3cc[n+](Cc4ccc(C[n+]5ccn(Cc6ccc(CN)cc6)c5)cc4)c3)cc2)c1.[Br-].[Br-].[Br-] [F1-CH2NH2]	250	125	62	16	1000	
OCc1ccc(Cn2cc[n+](C/C=C/Cn3cc[n+](Cc4ccc(CO)cc4)c3)c2)cc1 [F-diol1]					>2000	MIC ([1]; read-out: MIC P. aeruginosa): 2000 µg/mL; MIC ([1]; read-out: MIC PA): 2000 µg/mL; MIC [2, 10]: 125 µg/mL; MIC ([2]; Staphylococcus aureus, ATCC6538; read-out: MIC SA): 12 µg/mL; MIC ([3]; read-out: MIC C. albicans): > 2000 µg/mL; MIC ([3]; read-out: MIC CA): > 2000 µg/mL; MIC ([4]; read-out: MIC E. coli): > 2000 µg/mL; MIC ([4]; read-out: MIC EC): > 2000 µg/mL; HC10 (rat red blood cells): >2000 ppm; resistance to polymers IBN-CP1 or IBN-CP3 after growth with degradation product (S. aureus [5]): did not develop resistance
OCc1ccc(Cn2cc[n+](Cc3ccccc3Cn3cc[n+](Cc4ccc(CO)cc4)c3)c2)cc1 [F-diol3]					>2000	MIC ([1]; read-out: MIC P. aeruginosa): > 4000 µg/mL; MIC [2, 10]: 500 µg/mL; MIC ([3]; read-out: MIC C. albicans): > 2000 µg/mL; MIC ([4]; read-out: MIC E. coli): > 2000 µg/mL; resistance to polymers IBN-CP1 or IBN-CP3 after growth with degradation product (S. aureus [5]): did not develop resistance
CCCCCCCCn1cc[n+](Cc2ccc(Cn3cc[n+](Cc4ccc(C[n+]5ccn(Cc6ccc(OCn7cc[n+](Cc8ccc(Cn9cc[n+](Cc%10ccc(Cn%11cc[n+](CCCCCCCC)c%11)cc%10)c9)cc8)c7)cc6)c5)cc4)c3)cc2)c1.[Br-].[Br-].[Br-].[Br-].[Br-].[Br-] [IBN-HC8]	125	16	125	8	>2000	degradation in buffered solutions [6]: not significantly degraded; zone of inhibition (E. coli; 0.5% w/v in ethanol): larger zones of inhibition than ethanol on its own; zone of inhibition (E. coli; [11]): comparable efficacy; bacterial cell walls in SEM images (E. coli and S. aureus): disrupted and subsequently dissolved; zone of inhibition (S. aureus [7]; 0.5% w/v in ethanol): larger zones of inhibition than ethanol on its own; zone of inhibition (S. aureus [7]; [11]): comparable efficacy; passage at which MIC increase was observed (S. aureus [5]; sub-MIC levels, 16 passages): 8 passage; zone of inhibition (P. aeruginosa; 0.5% w/v in ethanol): comparable zones of inhibition compared to ethanol; zone of inhibition (P. aeruginosa; [11]): comparable efficacy; Critical gelation concentration ([8]; ethanol): 1.5 wt %; Critical gelation concentration ([8]; n-butanol): 1.0 wt %; Critical gelation concentration ([8]; n-propanol): 0.5 wt %
CN[C@H](CC(C)C)C(=O)N[C@H]1C(=O)N[C@@H](CC(N)=O)C(=O)N[C@H]2C(=O)N[C@H]3C(=O)N[C@H](C(=O)N[C@H](C(=O)O)c4cc(O)cc(O)c4-c4cc3ccc4O)[C@H](O)c3ccc(c(Cl)c3)Oc3cc2cc(c3O[C@@H]2O[C@H](CO)[C@@H](O)[C@H](O)[C@H]2O[C@H]2C[C@](C)(N)[C@H](O)[C@H](C)O2)Oc2ccc(cc2Cl)[C@H]1O [Vancomycin, reference compound]					>2000	MIC ([2]; Staphylococcus aureus, ATCC6538, read-out: MIC S. aureus): 2 µg/mL (≈ 1.38 µM); change of MIC value over serial passages (S. aureus [5]; sub-MIC levels, 16 passages): quadrupled; passage at which MIC increase was observed (S. aureus [5]; sub-MIC levels, 16 passages): 5 passage
CCn1cc(C(=O)O)c(=O)c2cc(F)c(N3CCNCC3)cc21 [norfloxacin, reference compound]						MIC value relative to its original value (S. aureus [5]; by the 15th passage): over 120 times

The next lines start with results.

MIC P. aeruginosa [1] [µg/mL]	MIC S. aureus [2] [µg/mL]	MIC C. albicans [3] [µg/mL]	MIC E. coli [4] [µg/mL]	Structure (SMILES)	HC10 (rat red blood cells; [9]) [µg/mL]	further results
2000	>2000	250	2000	CCCCCCCCn1cc[n+](Cc2ccc(Cn3cc[n+](Cc4ccc(C[n+]5ccn(Cc6ccc(CO)cc6)c5)cc4)c3)cc2)c1.[Br-].[Br-].[Br-] [F1-CH2OH]	>2000	hemolysis at highest concentration (rat red blood cells; 2000 μg/ml): did not induce hemolysis
>2000	62	500	31	CCCCCCCCn1cc[n+](Cc2ccc(Cn3cc[n+](Cc4ccc(C[n+]5ccn(Cc6ccc(C(=O)O)cc6)c5)cc4)c3)cc2)c1.[Br-].[Br-].[Br-] [F1-COOH]		
>2000	2000	>2000	>2000	OCc1ccc(Cn2cc[n+](Cc3ccc(C[n+]4ccn(Cc5ccc(CO)cc5)c4)cc3)c2)cc1.[Br-].[Br-] [F-diol2]	>2000	
>2000	250	>2000	1000	OCc1ccccc1Cn1cc[n+](C/C=C/C[n+]2ccn(Cc3ccccc3CO)c2)c1.[Br-].[Br-] [F-diol4]		
>2000	125	>2000	250	OCc1ccccc1Cn1cc[n+](Cc2ccccc2C[n+]2ccn(Cc3ccccc3CO)c2)c1.[Br-].[Br-] [F-diol5]	>2000	
